Test results: patent US20240239759A1, “ISOXAZOLINE COMPOSITIONS AND THEIR USE AS ANTIPARASITICS” (Intervet Inc., priority 2007, published 2024)

Assays:
[1] = Side effects in dogs (Example 5); format: in vivo; settings: beagles; oral 20 mg/kg or topical 200 ppm
Protocol: (§1) On Day Zero, one group of 4 beagles was treated orally with gelatin capsules containing 20 mg/kg body weight of […]. Another group of 4 beagles was treated topically by washing with 2 L of solution containing 200 ppm body weight of […] dissolved in DMF-premix/tap water (1:100, based on volume). Finally, a group of 3 beagles remained untreated as the negative control. Two days before treatment on Day Zero, all the beagles were each infested with approximately 80 unfed adult fleas (C. felis) and approximately 60 unfed adult ticks (R. sanguineus). The parasite burden of each beagle was assessed on Day 2 (approximately 48 hr after the treatment) by removing and counting the fleas and ticks. Fleas and ticks were classified according to vitality (fleas: dead or alive; ticks: dead or alive, and engorged or not engorged). The efficacy was calculated from the mean number of vital fleas and ticks in the treated group (Mt) relative to the mean number of vital fleas and ticks in the untreated control group (Mc) using following formula: […]

[2] = Side effects in mice, mite study (Example 2B); format: in vivo; settings: topical 100 ppm, oral or subcutaneous 10 mg/kg, twice 7 days apart
Protocol: The mice were divided into groups of three, and treated topically with 100 ppm body weight, orally with 10 mg/kg body weight, or subcutaneously with 10 mg/kg body weight of Compound 11-1, fipronil (positive control), or nothing (negative control). This treatment was then repeated 7 days later. The infestation rate per mouse (“+”=low infestation rate, “++”=medium infestation rate, “+++”=high infestation rate) was assessed repeatedly on days 1, 6, 9, 13, and 23. Efficacy was defined as the inhibition of the mite infestation rate on treated mice relative to the negative control group.

cat fleas (C. felis) [3] = test: Further efficacy study against cat fleas on beagles (Example 6); format: in vivo, Ctenocephalides felis
Protocol: (§2) Beagles were randomly assigned to 5 treatment groups of 4 animals each, and one untreated control group of 3 animals.
(§3) The dogs were infested with approximately 80 fleas (C. felis) and 60 ticks (R. sanguineus) on Days −2, 7, 14, 21, 28, 35, 42, and 49. Fleas and ticks were counted on Day 2 (approximately 48 h after treatment), as well as Days 9, 16, 23, 30, 37, 44, and 51 (approximately 48 hr after each post-treatment re-infestation) to evaluate the insecticidal and acaricidal activity in the treated groups. In Group B, an additional flea and tick infestation was conducted on Day 56, with a respective flea and tick count on Day 58. In addition to the flea and tick counts, blood samples were collected before the treatments, as well as approximately 2 hr, 4 hr, 8 hr, 24 hr, and 72 hr after the treatment on Day Zero, and then once on each of Days 7, 14, 21, 28, 35, 42, 49, and 56. The concentration of Compound 11-1 in blood plasma was analyzed by HPLC/MS/MS. The LOQ of this method was 5 ng/ml.

[4] = system: brown dog ticks (R. sanguineus); test: Efficacy against brown dog ticks on dogs (Example 5); format: in vivo, Rhipicephalus sanguineus; settings: beagles, Day 2 (approx. 48 hr after treatment)
Protocol: as §1

cat fleas (C. felis) [5] = test: Efficacy against cat fleas on dogs (Example 5); format: in vivo, Ctenocephalides felis; settings: beagles, Day 2 (approx. 48 hr after treatment)
Protocol: as §1

[6] = system: brown dog ticks (R. sanguineus); test: Further efficacy study against brown dog ticks on beagles (Example 6); format: in vivo, Rhipicephalus sanguineus
Protocol: as §2, §3

[7] = Group A: 1 mg/kg oral tablet, Day 2
[8] = Group A: 1 mg/kg oral tablet, Day 9
[9] = Group A: 1 mg/kg oral tablet, Day 16
[10] = Group A: 1 mg/kg oral tablet, Day 23
[11] = Group A: 1 mg/kg oral tablet, Day 30
[12] = Group A: 1 mg/kg oral tablet, Day 37
[13] = Group A: 1 mg/kg oral tablet, Day 44
[14] = Group A: 1 mg/kg oral tablet, Day 51
[15] = Group B: 1 mg/kg subcutaneous injectable solution, Day 2
[16] = Group B: 1 mg/kg subcutaneous injectable solution, Day 9
[17] = Group B: 1 mg/kg subcutaneous injectable solution, Day 16
[18] = Group B: 1 mg/kg subcutaneous injectable solution, Day 23
[19] = Group B: 1 mg/kg subcutaneous injectable solution, Day 30
[20] = Group B: 1 mg/kg subcutaneous injectable solution, Day 37
[21] = Group B: 1 mg/kg subcutaneous injectable solution, Day 44
[22] = Group B: 1 mg/kg subcutaneous injectable solution, Day 51
[23] = Group B: 1 mg/kg subcutaneous injectable solution, Day 58
[24] = Group C: 1 mg/kg topical spot-on with absorption enhancer, Day 2
[25] = Group C: 1 mg/kg topical spot-on with absorption enhancer, Day 9
[26] = Group C: 1 mg/kg topical spot-on with absorption enhancer, Day 16
[27] = Group C: 1 mg/kg topical spot-on with absorption enhancer, Day 23
[28] = Group C: 1 mg/kg topical spot-on with absorption enhancer, Day 30
[29] = Group C: 1 mg/kg topical spot-on with absorption enhancer, Day 37
[30] = Group C: 1 mg/kg topical spot-on with absorption enhancer, Day 44
[31] = Group C: 1 mg/kg topical spot-on with absorption enhancer, Day 51
[32] = Group D: 1 mg/kg topical spot-on with absorption enhancer and spreading agent, Day 2
[33] = Group D: 1 mg/kg topical spot-on with absorption enhancer and spreading agent, Day 9
[34] = Group D: 1 mg/kg topical spot-on with absorption enhancer and spreading agent, Day 16
[35] = Group D: 1 mg/kg topical spot-on with absorption enhancer and spreading agent, Day 23
[36] = Group D: 1 mg/kg topical spot-on with absorption enhancer and spreading agent, Day 30
[37] = Group D: 1 mg/kg topical spot-on with absorption enhancer and spreading agent, Day 37
[38] = Group D: 1 mg/kg topical spot-on with absorption enhancer and spreading agent, Day 44
[39] = Group D: 1 mg/kg topical spot-on with absorption enhancer and spreading agent, Day 51
[40] = Group E: 1 mg/kg topical spot-on in ethyl lactate, Day 2
[41] = Group E: 1 mg/kg topical spot-on in ethyl lactate, Day 9
[42] = Group E: 1 mg/kg topical spot-on in ethyl lactate, Day 16
[43] = Group E: 1 mg/kg topical spot-on in ethyl lactate, Day 23
[44] = Group E: 1 mg/kg topical spot-on in ethyl lactate, Day 30
[45] = Group E: 1 mg/kg topical spot-on in ethyl lactate, Day 37
[46] = Group E: 1 mg/kg topical spot-on in ethyl lactate, Day 44
[47] = Group E: 1 mg/kg topical spot-on in ethyl lactate, Day 51
[48] = topical washing with 2 L of 200 ppm solution

## Cc1cc(C2=NOC(c3cc(Cl)cc(Cl)c3)(C(F)(F)F)C2)ccc1C(=O)NCC(=O)NCC(F)(F)F (racemic) [Compound 11-1, 4-[5-(3,5-dichlorophenyl)-5-trifluoromethyl-4,5-dihydroisoxazol-3-yl]-2-methyl-N-[(2,2,2-trifluoro-ethylcarbamoyl)-methyl]-benzamide]
[1]
  Side effects: No side effects were observed
[2]
  Side effects: No side effects were observed
Cat fleas (C. felis) [3]; [7]
  Efficacy against cat fleas: 100
Cat fleas (C. felis) [3]; [8]
  Efficacy against cat fleas: 100
Cat fleas (C. felis) [3]; [9]
  Efficacy against cat fleas: 100
Cat fleas (C. felis) [3]; [10]
  Efficacy against cat fleas: 100
Cat fleas (C. felis) [3]; [11]
  Efficacy against cat fleas: 100
Cat fleas (C. felis) [3]; [12]
  Efficacy against cat fleas: 99.6
Cat fleas (C. felis) [3]; [13]
  Efficacy against cat fleas: 100
Cat fleas (C. felis) [3]; [14]
  Efficacy against cat fleas: 100
Cat fleas (C. felis) [3]; [15]
  Efficacy against cat fleas: 100
Cat fleas (C. felis) [3]; [16]
  Efficacy against cat fleas: 100
Cat fleas (C. felis) [3]; [17]
  Efficacy against cat fleas: 100
Cat fleas (C. felis) [3]; [18]
  Efficacy against cat fleas: 100
Cat fleas (C. felis) [3]; [19]
  Efficacy against cat fleas: 99.6
Cat fleas (C. felis) [3]; [20]
  Efficacy against cat fleas: 100
Cat fleas (C. felis) [3]; [21]
  Efficacy against cat fleas: 100
Cat fleas (C. felis) [3]; [22]
  Efficacy against cat fleas: 100
Cat fleas (C. felis) [3]; [23]
  Efficacy against cat fleas: 99.7
Cat fleas (C. felis) [3]; [24]
  Efficacy against cat fleas: 100
Cat fleas (C. felis) [3]; [25]
  Efficacy against cat fleas: 100
Cat fleas (C. felis) [3]; [26]
  Efficacy against cat fleas: 100
Cat fleas (C. felis) [3]; [27]
  Efficacy against cat fleas: 100
Cat fleas (C. felis) [3]; [28]
  Efficacy against cat fleas: 100
Cat fleas (C. felis) [3]; [29]
  Efficacy against cat fleas: 100
Cat fleas (C. felis) [3]; [30]
  Efficacy against cat fleas: 100
Cat fleas (C. felis) [3]; [31]
  Efficacy against cat fleas: 100
Cat fleas (C. felis) [3]; [32]
  Efficacy against cat fleas: 100
Cat fleas (C. felis) [3]; [33]
  Efficacy against cat fleas: 100
Cat fleas (C. felis) [3]; [34]
  Efficacy against cat fleas: 100
Cat fleas (C. felis) [3]; [35]
  Efficacy against cat fleas: 100
Cat fleas (C. felis) [3]; [36]
  Efficacy against cat fleas: 100
Cat fleas (C. felis) [3]; [37]
  Efficacy against cat fleas: 100
Cat fleas (C. felis) [3]; [38]
  Efficacy against cat fleas: 100
Cat fleas (C. felis) [3]; [39]
  Efficacy against cat fleas: 100
Cat fleas (C. felis) [3]; [40]
  Efficacy against cat fleas: 100
Cat fleas (C. felis) [3]; [41]
  Efficacy against cat fleas: 100
Cat fleas (C. felis) [3]; [42]
  Efficacy against cat fleas: 100
Cat fleas (C. felis) [3]; [43]
  Efficacy against cat fleas: 100
Cat fleas (C. felis) [3]; [44]
  Efficacy against cat fleas: 100
Cat fleas (C. felis) [3]; [45]
  Efficacy against cat fleas: 100
Cat fleas (C. felis) [3]; [46]
  Efficacy against cat fleas: 100
Cat fleas (C. felis) [3]; [47]
  Efficacy against cat fleas: 100
[4]; oral gelatin capsules 20 mg/kg
  Tick efficacy: 100%
[4]; [48]
  Tick efficacy: 100%
Cat fleas (C. felis) [5]; oral gelatin capsules 20 mg/kg
  Flea efficacy: 100%
Cat fleas (C. felis) [5]; [48]
  Flea efficacy: 100%
[6]; [7]
  Efficacy against brown dog ticks: 99.4
[6]; [8]
  Efficacy against brown dog ticks: 99.3
[6]; [9]
  Efficacy against brown dog ticks: 98.3
[6]; [10]
  Efficacy against brown dog ticks: 98.2
[6]; [11]
  Efficacy against brown dog ticks: 98.9
[6]; [12]
  Efficacy against brown dog ticks: 94.6
[6]; [13]
  Efficacy against brown dog ticks: 82.0
[6]; [14]
  Efficacy against brown dog ticks: 82.0
[6]; [15]
  Efficacy against brown dog ticks: 100
[6]; [16]
  Efficacy against brown dog ticks: 99.3
[6]; [17]
  Efficacy against brown dog ticks: 100
[6]; [18]
  Efficacy against brown dog ticks: 98.8
[6]; [19]
  Efficacy against brown dog ticks: 99.5
[6]; [20]
  Efficacy against brown dog ticks: 98.8
[6]; [21]
  Efficacy against brown dog ticks: 95.1
[6]; [22]
  Efficacy against brown dog ticks: 88.8
[6]; [23]
  Efficacy against brown dog ticks: 74.0
[6]; [24]
  Efficacy against brown dog ticks: 81.9
[6]; [25]
  Efficacy against brown dog ticks: 98.7
[6]; [26]
  Efficacy against brown dog ticks: 94.8
[6]; [27]
  Efficacy against brown dog ticks: 98.2
[6]; [28]
  Efficacy against brown dog ticks: 96.2
[6]; [29]
  Efficacy against brown dog ticks: 87.0
[6]; [30]
  Efficacy against brown dog ticks: 76.5
[6]; [31]
  Efficacy against brown dog ticks: 55.3
[6]; [32]
  Efficacy against brown dog ticks: 83.1
[6]; [33]
  Efficacy against brown dog ticks: 96.1
[6]; [34]
  Efficacy against brown dog ticks: 98.3
[6]; [35]
  Efficacy against brown dog ticks: 98.2
[6]; [36]
  Efficacy against brown dog ticks: 96.2
[6]; [37]
  Efficacy against brown dog ticks: 94.1
[6]; [38]
  Efficacy against brown dog ticks: 73.8
[6]; [39]
  Efficacy against brown dog ticks: 63.4
[6]; [40]
  Efficacy against brown dog ticks: 70.6
[6]; [41]
  Efficacy against brown dog ticks: 90.2
[6]; [42]
  Efficacy against brown dog ticks: 95.9
[6]; [43]
  Efficacy against brown dog ticks: 91.5
[6]; [44]
  Efficacy against brown dog ticks: 97.8
[6]; [45]
  Efficacy against brown dog ticks: 89.2
[6]; [46]
  Efficacy against brown dog ticks: 79.8
[6]; [47]
  Efficacy against brown dog ticks: 59.6
